Data on four molecules can be found in patent US10988433B2, “Cyclohexyl GPR40 agonists for the treatment of type II diabetes” (Janssen Pharmaceutica NV, priority 2016, dated 2021).

Experiment [1] deals with Male ZDF rats. Kind of experiment: Oral Glucose Tolerance Test, Version B. The format is in vivo, rat. The settings on record: Assay Version B: fasted male ZDF rats, compound 10 mg/kg 120 min prior to OGTT (glucose 1 g/kg po); blood glucose AUC t=0 to 120 min vs vehicle. On the procedure: Male ZDF rats (7 weeks old, 200-240 g) were housed 2 per cage in a temperature-controlled room with a 12-hour light/dark cycle. They were allowed ad libitum access to water and fed with 5008 rodent chow. The night before the oral glucose tolerance test (OGTT), the rats were transferred to clean cages and fasted overnight. On the morning of the OGTT, the rats were weighed and randomized into groups based on fasted blood glucose and body weight. Rats were dosed with vehicle (0.5% Methocel) or compound (10 mg/kg) 120 min prior to the OGTT (glucose, 1 g/kg, po). Blood was collected from the tail vein at 0, 10, 30, 60 and 120 minutes after glucose challenge to measure blood glucose; plasma was used to determine insulin levels. The area under the curve for blood glucose excursion was calculated from t=0 to t=120 minutes. Percent lowering of glucose was calculated from the AUC data with respect to the vehicle-treated group.

Experiment [2] addresses T1, human GPR40 (Homo sapiens, UniProt O14842).
T1 construct: expressed in transfected cells
In words: GPR40 calcium flux assay, HEK293 cells stably expressing human GPR40. The format is cell-based. The conditions noted are these: transfected HEK293 cells stably expressing human GPR40, Fluo 8 dye, read-out: hGPR40 Ca2+ Assay EC50.

Experiment [3] deals with T2, rat GPR40 (Rattus norvegicus, UniProt Q8K3T4).
T2 construct: expressed in transfected cells
T2 sequence (Q8K3T4 whole entry): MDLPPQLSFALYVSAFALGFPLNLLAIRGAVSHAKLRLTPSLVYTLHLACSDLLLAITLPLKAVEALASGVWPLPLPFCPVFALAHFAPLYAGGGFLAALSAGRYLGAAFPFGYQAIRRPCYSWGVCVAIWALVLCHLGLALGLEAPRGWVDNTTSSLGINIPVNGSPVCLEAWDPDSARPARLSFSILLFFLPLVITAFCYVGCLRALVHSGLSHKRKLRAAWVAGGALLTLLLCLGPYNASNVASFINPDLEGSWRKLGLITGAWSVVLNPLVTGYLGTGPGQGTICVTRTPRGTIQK
Kind of experiment: GPR40 calcium flux assay, HEK293 cells stably expressing rat GPR40. In kind it is cell-based. The conditions noted are these: transfected HEK293 cells stably expressing rat GPR40, Fluo 8 dye, read-out: rGPR40 Ca2+ Assay EC50. In general terms: A change in cytosolic calcium serves as a functional read-out for many receptors and channels.

For experiment [4], the system named is Male SD rats. In words: Oral Glucose Tolerance Test, Version A. In kind it is in vivo, rat. The settings on record: Assay Version A: fasted male SD rats, dosed 30 min prior to oGTT (glucose 2 g/kg po); blood glucose AUC t=0 to 120 min vs vehicle. How it is done: Male SD rats (200-250 g) were housed 2 per cage in a temperature-controlled room with a 12-hour light/dark cycle. They were allowed ad libitum access to water and fed with normal rodent chow. The night before the oral glucose tolerance test (oGTT), the rats were transferred to clean cages and fasted overnight. On the morning of the oGTT, the rats were weighed and randomized into groups based on fasted blood glucose and body weight. Rats were dosed with vehicle (0.5% methocel) or compounds thirty min prior to the oGTT (glucose, 2 g/kg, po). Blood was collected from the tail vein at 0, 10, 30, 60 and 120 minutes after glucose challenge to measure blood glucose; plasma was used to determine insulin levels. The area under the curve for blood glucose excursion was calculated from t=0 to t=120 minutes. Percent lowering of glucose was calculated from the AUC data with respect to the vehicle-treated group.

pEC50: −log10 of the molar value.

T1 sequence (O14842 whole entry): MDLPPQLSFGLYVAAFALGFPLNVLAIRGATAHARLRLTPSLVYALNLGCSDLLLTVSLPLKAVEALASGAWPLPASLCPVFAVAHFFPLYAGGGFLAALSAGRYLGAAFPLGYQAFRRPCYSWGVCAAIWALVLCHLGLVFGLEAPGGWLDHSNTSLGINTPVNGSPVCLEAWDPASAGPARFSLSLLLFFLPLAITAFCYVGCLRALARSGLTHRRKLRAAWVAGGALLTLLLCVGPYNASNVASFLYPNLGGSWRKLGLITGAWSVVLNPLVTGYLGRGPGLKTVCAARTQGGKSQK

Regarding `COc1ccc(F)c([C@H]2CC[C@H](COc3cccc([C@H](C4CC4)[C@@](C)(F)C(=O)O)c3)CC2)c1` [Cpd 59, (2R,3S)-3-Cyclopropyl-2-fluoro-3-(3-(((1r,4S)-4-(2-fluoro-5-methoxyphenyl)cyclohexyl)methoxy)phenyl)-2-methylpropanoic acid], the “Percent Lowering of Glucose (AUC compound vs. AUC Vehicle)” value (“Percent Lowering of Glucose” below) in experiment [1] turned out to be 48%. Besides, the pEC50 in experiment [2] is 9.57; in experiment [3], 9.14.

With `COc1ccc(F)c([C@H]2CC[C@H](COc3cccc([C@@H](CC(=O)O)C4CC4)c3)CC2)c1` [Cpd 2, (S)-3-Cyclopropyl-3-(3-(((1r,4 S)-4-(2-fluoro-5-methoxyphenyl)cyclohexyl)methoxy)phenyl) propanoic acid], the negative-log EC50 (pEC50) in experiment [2] is 9.10; in experiment [3], 8.47. Besides, in experiment [4], the “Percent Lowering of Glucose” value came to 33%.

Turning to `COc1ccc(F)c([C@H]2CC[C@@H](COc3cccc([C@@H](CC(=O)O)C4CC4)c3)CC2)c1` [Cpd 1, (S)-3-Cyclopropyl-3-(3-(((1s,4R)-4-(2-fluoro-5-methoxyphenyl)cyclohexyl)methoxy)phenyl) propanoic acid], the figures for the pEC50 in experiment [2] and in experiment [3] were 7.44 and 6.98, respectively. Besides, the “Percent Lowering of Glucose” value in experiment [4] is 11%.

As for `COc1cc([C@H]2CC[C@H](COc3cc([C@@H](CC(=O)O)C4CC4)ccn3)CC2)c(F)cn1` [Cpd 25, (S)-3-Cyclopropyl-3-(2-(((1r,4S)-4-(5-fluoro-2-methoxypyridin-4-yl)cyclohexyl)methoxy)pyridin-4-yl)propanoic acid], the pEC50 in experiment [2] is 8.28; in experiment [3], 8.89. Further, the “Percent Lowering of Glucose” value in experiment [4] was determined as 28%.

As a reminder, the pEC50 is the EC50 on a negative log10 scale, so that one unit is a factor of ten.
